Laboratory results published in patent US5840684A, “Glycopeptide antibiotic derivatives” (Eli Lilly and Company, priority 1995, dated 1998).
In brackets after ≈: the same amount, converted by molar mass.

Tests used:
[1] = system: Staphylococcus aureus S13E; assay type: cell-based
Procedure: (§1) The MIC's were determined using a standard broth micro-dilution assay.

[2] = system: Staphylococcus aureus SA1199B; assay type: cell-based
Procedure: as §1

[3] = system: Entercoccus faecium 180-1; assay: broth micro-dilution MIC; assay type: cell-based
Procedure: as §1

Entercoccus faecium 276 = assay: broth micro-dilution MIC; assay type: cell-based
Procedure: as §1

[4] = system: Staphylococcus aureus 446; assay: broth micro-dilution MIC; assay type: cell-based
Procedure: as §1

[5] = system: Staphylococcus aureus 447; assay: broth micro-dilution MIC; assay type: cell-based
Procedure: as §1

[6] = system: Staphylococcus aureus 489; assay: broth micro-dilution MIC; assay type: cell-based
Procedure: as §1

[7] = system: Staphylococcus aureus 491; assay: broth micro-dilution MIC; assay type: cell-based
Procedure: as §1

[8] = system: Staphylococcus aureus SA1199A; assay: broth micro-dilution MIC; assay type: cell-based
Procedure: as §1

[9] = system: Staphylococcus aureus SA1199; assay: broth micro-dilution MIC; assay type: cell-based
Procedure: as §1

[10] = system: Staphylococcus aureus X400; assay: broth micro-dilution MIC; assay type: cell-based
Procedure: as §1

[11] = system: Staphylococcus aureus X778; assay: broth micro-dilution MIC; assay type: cell-based
Procedure: as §1

[12] = system: Streptococcus pyogenes C203; assay: broth micro-dilution MIC; assay type: cell-based
Procedure: as §1

Entercoccus faecium 180 = assay: broth micro-dilution MIC; assay type: cell-based; settings: Entercoccus faecium 180
Procedure: (§2) The formula I compounds have in vitro and in vivo activity against Gram-positive pathogenic bacteria. The MIC's were determined using a standard broth micro-dilution assay.

Entercoccus faecium 2041 = assay: broth micro-dilution MIC; assay type: cell-based; settings: Entercoccus faecium 2041
Procedure: as §2

[13] = system: Enterococcus gallinarum 245; assay: broth micro-dilution MIC; assay type: cell-based; settings: Enterococcus gallinarum 245
Procedure: as §2

[14] = system: Staphylococcus epidermidis 270; assay: broth micro-dilution MIC; assay type: cell-based
Procedure: as §2

[15] = system: Staphylococcus haemolyticus 105; assay: broth micro-dilution MIC; assay type: cell-based
Procedure: as §2

[16] = system: Staphylococcus haemolyticus 415; assay: broth micro-dilution MIC; assay type: cell-based
Procedure: as §2

[17] = system: Streptococcus pneumoniae P1; assay: broth micro-dilution MIC; assay type: cell-based
Procedure: as §2

[18] = system: vancomycin-resistant enterococci; assay: broth micro-dilution, mean geometric MIC; assay type: cell-based, Enterococcus faecium and Enterococcus faecalis; settings: enterococci, 24-hour incubation
[19] = system: vancomycin-susceptible enterococci; assay: broth micro-dilution, mean geometric MIC; assay type: cell-based, Enterococcus faecium and Enterococcus faecalis; settings: enterococci, 24-hour incubation

SMILES | MIC [1] [µg/mL] | MIC [2] [µg/mL] | MIC [3] [µg/mL] | MIC (Entercoccus faecium 276) [µg/mL] | MIC [4] [µg/mL] | MIC [5] [µg/mL] | MIC [6] [µg/mL] | MIC [7] [µg/mL] | MIC [8] [µg/mL] | MIC [9] [µg/mL] | MIC [10] [µg/mL] | MIC [11] [µg/mL] | MIC [12] [µg/mL] | MIC (Entercoccus faecium 180) [µg/mL] | MIC (Entercoccus faecium 2041) [µg/mL] | MIC [13] [µg/mL] | MIC [14] [µg/mL] | MIC [15] [µg/mL] | MIC [16] [µg/mL] | MIC [17] [µg/mL] | also measured
CNC(CC(C)C)C(=O)NC1C(=O)NC(CC(N)=O)C(=O)NC2C(=O)NC3C(=O)NC(C(=O)NC(C(=O)O)c4cc(O)cc(O)c4-c4cc3ccc4O)C(OC3CC(C)(N)C(O)C(C)O3)c3ccc(c(Cl)c3)Oc3cc2cc(c3OC2OC(CO)C(O)C(O)C2OC2CC(C)(NCc3ccc(OC)c(OCC4CCCCC4)c3)C(O)C(C)O2)Oc2ccc(cc2Cl)C1O (stereo not shown) [Compound 142] | 2 (≈ 1.1 µM) | 2 (≈ 1.1 µM) | ≤ 0.06 | 1 (≈ 0.548 µM) | 2 (≈ 1.1 µM) | 2 (≈ 1.1 µM) | 0.5 (≈ 0.274 µM) | 0.5 (≈ 0.274 µM) | ≤ 0.06 | 1 (≈ 0.548 µM) | 1 (≈ 0.548 µM) | 1 (≈ 0.548 µM) | ≤ 0.06 | 0.5 (≈ 0.274 µM) | ≤ 0.06 | 1 (≈ 0.548 µM) | 0.25 (≈ 0.137 µM) | 1 (≈ 0.548 µM) | 1 (≈ 0.548 µM) | ≤ 0.06 | mean geometric MIC, Vancomycin Resistant Strains [18]: 45 µg/mL; mean geometric MIC, Vancomycin Sensitive Strains [19]: 1.5 µg/mL
CNC(CC(C)C)C(=O)NC1C(=O)NC(CC(N)=O)C(=O)NC2C(=O)NC3C(=O)NC(C(=O)NC(C(=O)O)c4cc(O)cc(O)c4-c4cc3ccc4O)C(OC3CC(C)(N)C(O)C(C)O3)c3ccc(c(Cl)c3)Oc3cc2cc(c3OC2OC(CO)C(O)C(O)C2OC2CC(C)(NCc3ccc(OC(=O)c4ccccc4)cc3)C(O)C(C)O2)Oc2ccc(cc2Cl)C1O (stereo not shown) [Compound 150] | 0.25 (≈ 0.139 µM) | 0.5 (≈ 0.277 µM) | ≤ 0.06 | 1 (≈ 0.555 µM) | 1 (≈ 0.555 µM) | 0.5 (≈ 0.277 µM) | 0.5 (≈ 0.277 µM) | ≤ 0.06 | ≤ 0.06 | 1 (≈ 0.555 µM) | ≤ 0.06 | 2 (≈ 1.11 µM) | ≤ 0.06 | 0.25 (≈ 0.139 µM) | ≤ 0.06 | 2 (≈ 1.11 µM) | 0.25 (≈ 0.139 µM) | 1 (≈ 0.555 µM) | 2 (≈ 1.11 µM) | ≤ 0.06 | mean geometric MIC, Vancomycin Resistant Strains [18]: 1.7 µg/mL; mean geometric MIC, Vancomycin Sensitive Strains [19]: 0.25 µg/mL
CNC(CC(C)C)C(=O)NC1C(=O)NC(CC(N)=O)C(=O)NC2C(=O)NC3C(=O)NC(C(=O)NC(C(=O)O)c4cc(O)cc(O)c4-c4cc3ccc4O)C(OC3CC(C)(N)C(O)C(C)O3)c3ccc(c(Cl)c3)Oc3cc2cc(c3OC2OC(CO)C(O)C(O)C2OC2CC(C)(NCc3cccc(OC4CCCCC4)c3)C(O)C(C)O2)Oc2ccc(cc2Cl)C1O (stereo not shown) [Compound 153] | 0.125 (≈ 0.0702 µM) | 0.25 (≈ 0.14 µM) | ≤ 0.06 | 0.5 (≈ 0.281 µM) | 0.5 (≈ 0.281 µM) | 0.5 (≈ 0.281 µM) | 1 (≈ 0.562 µM) | 0.125 (≈ 0.0702 µM) | ≤ 0.06 | 0.5 (≈ 0.281 µM) | 0.5 (≈ 0.281 µM) | 0.5 (≈ 0.281 µM) | ≤ 0.06 | 0.125 (≈ 0.0702 µM) | ≤ 0.06 | 1 (≈ 0.562 µM) | 0.25 (≈ 0.14 µM) | 2 (≈ 1.12 µM) | 1 (≈ 0.562 µM) | ≤ 0.06 | mean geometric MIC, Vancomycin Resistant Strains [18]: 1.4 µg/mL; mean geometric MIC, Vancomycin Sensitive Strains [19]: 0.083 µg/mL
CNC(CC(C)C)C(=O)NC1C(=O)NC(CC(N)=O)C(=O)NC2C(=O)NC3C(=O)NC(C(=O)NC(C(=O)O)c4cc(O)cc(O)c4-c4cc3ccc4O)C(OC3CC(C)(N)C(O)C(C)O3)c3ccc(c(Cl)c3)Oc3cc2cc(c3OC2OC(CO)C(O)C(O)C2OC2CC(C)(NCC3CCC(C4CCCCC4)CC3)C(O)C(C)O2)Oc2ccc(cc2Cl)C1O (stereo not shown) [Compound 164] | 4 (≈ 2.26 µM) | 2 (≈ 1.13 µM) | ≤ 0.06 | 1 (≈ 0.565 µM) | 2 (≈ 1.13 µM) | 2 (≈ 1.13 µM) | 2 (≈ 1.13 µM) | 1 (≈ 0.565 µM) | 0.5 (≈ 0.282 µM) | 2 (≈ 1.13 µM) | 0.5 (≈ 0.282 µM) | 1 (≈ 0.565 µM) | ≤ 0.06 | 0.5 (≈ 0.282 µM) | 1 (≈ 0.565 µM) | 2 (≈ 1.13 µM) | 1 (≈ 0.565 µM) | 2 (≈ 1.13 µM) | 2 (≈ 1.13 µM) | ≤ 0.06 | mean geometric MIC, Vancomycin Resistant Strains [18]: 1.7 µg/mL; mean geometric MIC, Vancomycin Sensitive Strains [19]: 0.11 µg/mL
